≈ marks a conversion by molar mass, not a printed value.
What was measured:
Type in all cases: functional
Mycobacterium kansasii = assay: Antibacterial activity against Mycobacterium kansasii
[1] = tested on: Mycobacterium tuberculosis; assay: Antibacterial activity against Mycobacterium tuberculosis H37Rv.
[2] = tested on: Mycobacterium intracellulare; assay: Antibacterial activity against Mycobacterium intracellular.

SMILES	MIC (Mycobacterium kansasii)	MIC [1]	MIC [2]
CCCCCC(=O)OCCCNC(=O)c1ccccc1SSc1ccccc1C(=O)NCCCOC(=O)CCCCC	0.39 µg/mL (≈ 0.632 µM)	3.13 µg/mL (≈ 5.07 µM)	12.5 µg/mL (≈ 20.3 µM)
O=C1c2ccccc2S(=O)(=O)N1CO	> 100 µg/mL	> 100 µg/mL	100 µg/mL (≈ 469 µM)
CCCCCCCCCCCCCCCCCCNC(=O)c1ccccc1SSc1ccccc1C(=O)NCCCCCCCCCCCCCCCCCC	> 100 µg/mL	100 µg/mL (≈ 124 µM)	> 100 µg/mL
CCCCCCCC(=O)OCCCNC(=O)c1ccccc1SSc1ccccc1C(=O)NCCCOC(=O)CCCCCCC	0.78 µg/mL (≈ 1.16 µM)	0.39 µg/mL (≈ 0.58 µM)	12.5 µg/mL (≈ 18.6 µM)
O=C(Nc1c([N+](=O)[O-])ccc2ccccc12)c1ccccc1SSc1ccccc1C(=O)Nc1c([N+](=O)[O-])ccc2ccccc12	50 µg/mL (≈ 77.3 µM)	50 µg/mL (≈ 77.3 µM)	> 100 µg/mL
COC(CNC(=O)c1ccccc1SSc1ccccc1C(=O)NCC(OC)OC)OC	12.5 µg/mL (≈ 26 µM)	3.13 µg/mL (≈ 6.51 µM)	12.5 µg/mL (≈ 26 µM)
O=C(c1ccccc1SSc1ccccc1C(=O)N1CCN(c2ccccc2)CC1)N1CCN(c2ccccc2)CC1	50 µg/mL (≈ 84.1 µM)	12.5 µg/mL (≈ 21 µM)	25 µg/mL (≈ 42 µM)
O=C(NCCO)c1ccc(Cl)cc1SSc1ccc(Cl)cc1C(=O)NCCO	25 µg/mL (≈ 54.2 µM)	6.25 µg/mL (≈ 13.5 µM)	50 µg/mL (≈ 108 µM)
CCCCCCCCCC(=O)OCCCNC(=O)c1ccccc1SSc1ccccc1C(=O)NCCCOC(=O)CCCCCCCCC	0.39 µg/mL (≈ 0.535 µM)	0.39 µg/mL (≈ 0.535 µM)	12.5 µg/mL (≈ 17.1 µM)
NC(=O)c1ccccc1SSc1ccccc1C(N)=O	25 µg/mL (≈ 82.1 µM)	12.5 µg/mL (≈ 41.1 µM)	25 µg/mL (≈ 82.1 µM)
CCCCCCCCCCCCCCCC(=O)OC(C)CNC(=O)c1ccccc1SSc1ccccc1C(=O)NCC(C)OC(=O)CCCCCCCCCCCCCCC (centres undefined)	> 100 µg/mL	25 µg/mL (≈ 27.9 µM)	> 100 µg/mL
COCCNC(=O)c1ccccc1SSc1ccccc1C(=O)NCCOC	12.5 µg/mL (≈ 29.7 µM)	6.25 µg/mL (≈ 14.9 µM)	12.5 µg/mL (≈ 29.7 µM)
O=C(c1ccccc1SSc1ccccc1C(=O)N(c1ccccc1)c1ccccc1)N(c1ccccc1)c1ccccc1	> 100 µg/mL	> 100 µg/mL	> 100 µg/mL
CCC(O)CNC(=O)c1ccccc1SSc1ccccc1C(=O)NCC(O)CC (centres undefined)	12.5 µg/mL (≈ 27.9 µM)	12.5 µg/mL (≈ 27.9 µM)	12.5 µg/mL (≈ 27.9 µM)
CC[C@@H](CO)NCCN[C@@H](CC)CO [ETHAMBUTOL]	12.5 µg/mL (≈ 61.2 µM)	0.78 µg/mL (≈ 3.82 µM)	12.5 µg/mL (≈ 61.2 µM)
NNC(=O)c1ccncc1 [ISONIAZID]	1.56 µg/mL (≈ 11.4 µM)	0.05 µg/mL (≈ 0.365 µM)	6.25 µg/mL (≈ 45.6 µM)
NC[C@H]1O[C@H](O[C@H]2[C@H](O)[C@@H](O[C@H]3O[C@H](CO)[C@@H](O)[C@H](N)[C@H]3O)[C@H](N)C[C@@H]2N)[C@H](O)[C@@H](O)[C@@H]1O [KANAMYCIN]	25 µg/mL (≈ 51.6 µM)	3.13 µg/mL (≈ 6.46 µM)	6.25 µg/mL (≈ 12.9 µM)
CO[C@H]1/C=C/O[C@@]2(C)Oc3c(C)c(O)c4c(O)c(c(/C=N/N5CCN(C)CC5)c(O)c4c3C2=O)NC(=O)/C(C)=C\C=C\[C@H](C)[C@H](O)[C@@H](C)[C@@H](O)[C@@H](C)[C@H](OC(C)=O)[C@@H]1C [RIFAMPIN]	0.05 µg/mL (≈ 0.0608 µM)	0.05 µg/mL (≈ 0.0608 µM)	0.2 µg/mL (≈ 0.243 µM)

Source: ChEMBL document CHEMBL1122862, “Synthesis and antibacterial activity of 2,2'-dithiobis(benzamide) derivatives against Mycobacterium species” (1985)
